Source: patent publication US12660819B2, “Herbicidal derivatives” (SYNGENTA CROP PROTECTION AG, priority 2020, dated 2026)

Experiments:
Format in all cases: in vivo
[1] = tested on: Abutilon theophrasti (ABUTH); test: Post-emergence Test (glasshouse, percentage damage to the plant); conditions: post-emergence spray, 1000 g/ha unless otherwise stated, evaluated after 13 days
Method in brief: (§1)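 Percentage damage to the plant, assessed 13 days after application and scored 1–5 in 20% bands. Pots sown in standard soil received compound at 1000 g/ha unless otherwise stated, sprayed under 24/16 °C, 14 h light, 65% humidity.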

[2] = tested on: Amaranthus retoflexus (AMARE); test: as above; conditions: post-emergence spray, 1000 g/ha unless otherwise stated, evaluated after 13 days
Method in brief: as §1

[3] = tested on: Echinochloa crus-galli (ECHCG); test: as above; conditions: post-emergence spray, 1000 g/ha unless otherwise stated, evaluated after 13 days
Method in brief: as §1

[4] = tested on: Ipomoea hederacea (IPOHE); test: as above; conditions: post-emergence spray, 1000 g/ha unless otherwise stated, evaluated after 13 days
Method in brief: (§2)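 Sown pots; spray 1000 g/ha (unless stated) in acetone/water 50:50 + 0.5% Tween 20; glasshouse 24/16 °C, 14 h light, 65% RH; watered twice daily; % damage read at 13 days, scored 1–5.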

Setaria faberi (SETFA) [5] = test: as above; conditions: post-emergence spray, 1000 g/ha unless otherwise stated, evaluated after 13 days
Method in brief: as §2

Zea mays (ZEAMX) [6] = test: as above; conditions: post-emergence spray, 1000 g/ha unless otherwise stated, evaluated after 13 days
Method in brief: as §2

[7] = tested on: Amaranthus retoflexus (AMARE); test: Pre-emergence Test (glasshouse, percentage damage to the plant); conditions: 1000 g/ha unless otherwise stated, five-point scale
Setaria faberi (SETFA) [8] = test: as above; conditions: 1000 g/ha unless otherwise stated, five-point scale
[9] = tested on: Echinochloa crus-galli (ECHCG); test: as above; conditions: 1000 g/ha unless otherwise stated, five-point scale
[10] = tested on: Ipomoea hederacea (IPOHE); test: as above; conditions: 1000 g/ha unless otherwise stated, five-point scale
[11] = tested on: Abutilon theophrasti (ABUTH); test: as above; conditions: 1000 g/ha unless otherwise stated, five-point scale
Zea mays (ZEAMX) [12] = test: as above; conditions: 1000 g/ha unless otherwise stated, five-point scale

Row | SMILES | Post-emergence Test ABUTH, percentage damage to the plant (five-point scale) [1] | Post-emergence Test AMARE, percentage damage to the plant (five-point scale) [2] | Post-emergence Test ECHCG, percentage damage to the plant (five-point scale) [3] | Post-emergence Test IPOHE, percentage damage to the plant (five-point scale) [4] | Post-emergence Test SETFA, percentage damage to the plant (five-point scale) (Setaria faberi (SETFA) [5]) | Post-emergence Test ZEAMX, percentage damage to the plant (five-point scale) (Zea mays (ZEAMX) [6]) | percentage damage to the plant, AMARE [7] | percentage damage to the plant, SETFA (Setaria faberi (SETFA) [8]) | percentage damage to the plant, ECHCG [9] | percentage damage to the plant, IPOHE [10] | percentage damage to the plant, ABUTH [11] | percentage damage to the plant, ZEAMX (Zea mays (ZEAMX) [12])
1 | CCn1c(C)c(-c2ccc(F)cc2C)c(=O)c(C(=O)O)c1-c1ccc(Cl)c(Cl)c1 [Compound 155, 2-(3,4-dichlorophenyl)-1-ethyl-5-(4-fluoro-2-methyl-phenyl)-6-methyl-4-oxo-pyridine-3-carboxylic acid] | 4 (4=61-80%) | 3 (3=41-60%) | 4 (4=61-80%) | 4 (4=61-80%) | 4 (4=61-80%) | 4 (4=61-80%) | 1 (1=0-20%) | 5 (5=81-100%) | 5 (5=81-100%) | 1 (1=0-20%) | 2 (2=21-40%) | 1 (1=0-20%)
2 | CCn1c(C)c(-c2cc(F)c(F)c(F)c2)c(=O)c(C(=O)O)c1-c1ccc(Cl)c(Cl)c1 [Compound 73, 2-(3,4-dichlorophenyl)-1-ethyl-6-methyl-4-oxo-5-(3,4,5-trifluorophenyl)pyridine-3-carboxylic acid] | 3 (3=41-60%) | 2 (2=21-40%) | 3 (3=41-60%) | 3 (3=41-60%) | 4 (4=61-80%) | 2 (2=21-40%) | 1 (1=0-20%) | 4 (4=61-80%) | 2 (2=21-40%) | 2 (2=21-40%) | 2 (2=21-40%) | 1 (1=0-20%)
3 | CCn1c(C)c(-c2cccc(C(F)(F)F)c2)c(=O)c(C(=O)O)c1-c1ccc(Cl)c(Cl)n1 [Compound 150, 2-(5,6-dichloro-2-pyridyl)-1-ethyl-6-methyl-4-oxo-5-[3-(trifluoromethyl)phenyl] pyridine-3-carboxylic acid] | 0 | 0 | 1 (1=0-20%) | 2 (2=21-40%) | 1 (1=0-20%) | 1 (1=0-20%) | 0 | 0 | 0 | 0 | 0 | 1 (1=0-20%)
4 | CCn1c(C)c(-c2ccc(S(=O)(=O)CC)cc2)c(=O)c(C(=O)O)c1-c1ccc(Cl)c(Cl)c1 [Compound 66, 2-(3,4-dichlorophenyl)-1-ethyl-5-(4-ethylsulfonylphenyl)-6-methyl-4-oxo-pyridine-3-carboxylic acid] | 3 (3=41-60%) | 1 (1=0-20%) | 2 (2=21-40%) | 2 (2=21-40%) | 3 (3=41-60%) | 1 (1=0-20%) | 1 (1=0-20%) | 4 (4=61-80%) | 2 (2=21-40%) | 1 (1=0-20%) | 1 (1=0-20%) | 1 (1=0-20%)
5 | CCn1c(C)c(-c2ccc(Cl)cc2)c(=O)c(C(=O)O)c1-c1ccnc(Cl)c1 [Compound 143, 5-(4-chlorophenyl)-2-(2-chloro-4-pyridyl)-1-ethyl-6-methyl-4-oxo-pyridine-3-carboxylic acid] | 4 (4=61-80%) | 2 (2=21-40%) | 4 (4=61-80%) | 4 (4=61-80%) | 4 (4=61-80%) | 4 (4=61-80%) | 1 (1=0-20%) | 5 (5=81-100%) | 5 (5=81-100%) | 1 (1=0-20%) | 3 (3=41-60%) | 3 (3=41-60%)
6 | CCn1c(C)c(-c2ccc(Cl)cc2)c(=O)c(C(=O)O)c1-c1ccc(Cl)cn1 [Compound 131, 5-(4-chlorophenyl)-2-(5-chloro-2-pyridyl)-1-ethyl-6-methyl-4-oxo-pyridine-3-carboxylic acid] | 1 (1=0-20%) | 1 (1=0-20%) | 0 | 1 (1=0-20%) | 3 (3=41-60%) | 2 (2=21-40%) | 0 | 0 | 0 | 0 | 0 | 0
7 | CCn1c(C)c(-c2cc(F)c(OC)c(Cl)c2)c(=O)c(C(=O)O)c1-c1ccc(Cl)c(Cl)c1 [Compound 75, 5-(3-chloro-5-fluoro-4-methoxy-phenyl)-2-(3,4-dichlorophenyl)-1-ethyl-6-methyl-4-oxo-pyridine-3-carboxylic acid] | 2 (2=21-40%) | 1 (1=0-20%) | 1 (1=0-20%) | 2 (2=21-40%) | 1 (1=0-20%) | 1 (1=0-20%) | 1 (1=0-20%) | 1 (1=0-20%) | 1 (1=0-20%) | 1 (1=0-20%) | 1 (1=0-20%) | 1 (1=0-20%)
8 | CCOC(=O)c1c(-c2ccc(Br)c(F)c2)n(CC)c(C)c(-c2ccc(Cl)cc2)c1=O [Compound 139, ethyl 2-(4-bromo-3-fluoro-phenyl)-5-(4-chlorophenyl)-1-ethyl-6-methyl-4-oxo-pyridine-3-carboxylate] | 4 (4=61-80%) | 3 (3=41-60%) | 2 (2=21-40%) | 1 (1=0-20%) | 3 (3=41-60%) | 2 (2=21-40%) | 0 | 0 | 0 | 0 | 0 | 0
